Common to all, as to experiment: cryo-EM structure of phycobilisome
What all share (type): binding

One experiment concerns the target T1, ApcE (Gloeobacter violaceus, UniProt Q7NL81).
T1 construct: native, within isolated GraFix cross-linked phycobilisome; bilin in N-terminal alpha-like domain, in third AP trimer of basal cylinders
T1 sequence (Q7NL81 1-1155): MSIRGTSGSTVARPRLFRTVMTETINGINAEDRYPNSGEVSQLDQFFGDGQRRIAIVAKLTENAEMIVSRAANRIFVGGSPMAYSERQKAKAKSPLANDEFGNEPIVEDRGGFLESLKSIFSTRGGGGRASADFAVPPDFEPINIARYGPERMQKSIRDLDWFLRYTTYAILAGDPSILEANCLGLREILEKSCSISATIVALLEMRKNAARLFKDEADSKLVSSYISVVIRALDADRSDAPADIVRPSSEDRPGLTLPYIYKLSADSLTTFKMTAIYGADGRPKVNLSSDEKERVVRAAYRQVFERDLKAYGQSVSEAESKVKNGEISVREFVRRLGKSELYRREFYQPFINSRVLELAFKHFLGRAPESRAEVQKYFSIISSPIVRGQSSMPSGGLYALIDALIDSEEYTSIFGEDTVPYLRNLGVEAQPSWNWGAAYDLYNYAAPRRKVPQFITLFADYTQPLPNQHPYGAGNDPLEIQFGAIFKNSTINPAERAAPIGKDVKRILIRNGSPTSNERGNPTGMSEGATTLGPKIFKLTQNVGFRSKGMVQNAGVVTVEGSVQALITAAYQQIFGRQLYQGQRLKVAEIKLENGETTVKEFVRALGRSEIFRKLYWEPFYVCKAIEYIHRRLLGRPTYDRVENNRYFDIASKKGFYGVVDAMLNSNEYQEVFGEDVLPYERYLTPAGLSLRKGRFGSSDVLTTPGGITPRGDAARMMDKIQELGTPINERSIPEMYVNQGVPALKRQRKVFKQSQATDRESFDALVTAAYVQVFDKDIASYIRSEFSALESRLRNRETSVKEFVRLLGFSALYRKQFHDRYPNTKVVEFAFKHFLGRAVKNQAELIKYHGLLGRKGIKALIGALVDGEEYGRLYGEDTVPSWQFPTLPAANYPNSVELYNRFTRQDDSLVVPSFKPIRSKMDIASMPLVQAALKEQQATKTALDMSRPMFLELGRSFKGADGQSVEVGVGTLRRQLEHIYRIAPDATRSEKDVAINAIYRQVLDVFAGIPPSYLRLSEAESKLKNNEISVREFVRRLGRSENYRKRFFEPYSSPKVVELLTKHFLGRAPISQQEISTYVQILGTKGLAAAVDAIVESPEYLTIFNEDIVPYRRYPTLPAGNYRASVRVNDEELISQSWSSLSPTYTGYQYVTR
Particulars: covalent; terminal emitter, D ring stacks on Trp162; ring conformation not resolved without restraints.

The target of the next experiment is T2, allophycocyanin (AP) (Gloeobacter violaceus, UniProt Q7NL79+Q7NL80).
T2 construct: gene apcA; native, (αβ)3 trimers of the pentacylindrical core in isolated GraFix cross-linked phycobilisome
T2 sequence (Q7NL80 1-161): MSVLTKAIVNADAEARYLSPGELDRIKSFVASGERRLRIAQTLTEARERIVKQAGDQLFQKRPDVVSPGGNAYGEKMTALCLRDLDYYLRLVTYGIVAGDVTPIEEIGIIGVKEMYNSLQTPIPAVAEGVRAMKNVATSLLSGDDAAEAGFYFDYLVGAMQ
T2 sequence (Q7NL79 1-161): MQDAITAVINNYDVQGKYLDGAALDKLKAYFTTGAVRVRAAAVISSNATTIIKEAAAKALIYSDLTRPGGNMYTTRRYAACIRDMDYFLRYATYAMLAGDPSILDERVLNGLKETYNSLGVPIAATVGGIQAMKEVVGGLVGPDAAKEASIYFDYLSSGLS
Particulars: covalent; one bilin on each alpha and beta subunit.

A further experiment concerns the target T3, phycocyanin (PC) (Gloeobacter violaceus, UniProt Q7M7C7+Q7M7F7).
T3 construct: gene cpcA; native, (αβ)6 hexamers of rods and Rx in isolated GraFix cross-linked phycobilisome
The conditions noted are these: covalent; one bilin on alpha, two on beta.

T3 sequence (Q7M7F7 1-162): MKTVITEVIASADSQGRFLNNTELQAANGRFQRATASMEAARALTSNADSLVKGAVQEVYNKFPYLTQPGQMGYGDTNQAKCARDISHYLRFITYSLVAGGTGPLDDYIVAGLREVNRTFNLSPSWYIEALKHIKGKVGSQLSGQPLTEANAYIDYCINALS
T3 sequence (Q7M7C7 1-172): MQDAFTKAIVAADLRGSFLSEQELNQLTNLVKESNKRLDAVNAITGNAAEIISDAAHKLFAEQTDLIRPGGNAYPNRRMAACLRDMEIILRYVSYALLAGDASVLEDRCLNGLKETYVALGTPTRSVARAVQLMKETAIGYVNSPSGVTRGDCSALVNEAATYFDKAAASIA

For the molecule `CC=C1C(=Cc2[nH]c(C=C3N=C(C=C4NC(=O)C(CC)=C4C)C(C)=C3CCC(=O)O)c(CCC(=O)O)c2C)NC(=O)C1C` (stereo not drawn) [phycocyanobilin], the “cryo-EM structure of phycobilisome” value on ApcE is “resolved in cryo-EM density map, including the terminal emitting bilin in ApcE”; on allophycocyanin (AP) it was “PCB conformations within PC hexamers in rods and AP hexamers in the core were resolved”; at phycocyanin (PC), “PCB conformations within PC hexamers in rods and AP hexamers in the core were resolved”.

Values taken from publication PMC12525769, “Structure and quenching of a bundle-shaped phycobilisome” (Science Advances, 2025).
